Reference: US10993935B2, “Compositions and methods for treatment of lung infections” (priority 2018, dated 2021)

How the values were obtained:
P. aeruginosa strains = assay: MIC and synergy testing (checkerboard/isobologram) of RFX and TOB; format: cell-based, Pseudomonas aeruginosa; settings: for MIC RFX: RFX alone; for MIC RFX in Combination: in combination with TOB; for MIC TOB: TOB alone; for MIC TOB in Combination: in combination with RFX
Description: Minimum Inhibitory Concentration Testing. MIC testing was performed as previously described. Briefly, overnight culture of bacteria was diluted in 1:100 of a 0.5 McFarland standard as inoculum. The same number of cells was grown in LB broth containing serial, two-fold dilutions of rifaximin (RFX) or tobramycin (TOB). Growth was measured via optical density (OD) at 600 nm after 24 h incubation at 37° C. Concentrations of antibiotic required for inhibition of 50% and 90% of strains were determined.
Synergy Testing. Synergistic potential of RFX and TOB was performed by isobologram (checkerboard) analysis in 96-well plate format Briefly, PIB containing serial dilutions of each drug were plated in 64 wells of a 96-well plate with one drug vertically plated and the other horizontally plated. Bacterial cells of P. aeruginosa were grown 4 to 6 hours to an early log phase and then added to the wells of the plate. Growth in the wells was measured via OD at 600 nm after 24 h incubation at 37° C. The MIC and Fractional Inhibition Concentration (FIC) were calculated to determine synergism, antagonism or additivity between the tested strains of P. aeruginosa: PAO1, PAO581, PAO581 isogenic mutant, CF001, and CF010. The summative ΣFTC was calculated from the FICs and interpreted according to the standard index values: synergy ≤0.5; indifferent 0.5< to ≤4; antagonism >4. […]

P. aeruginosa PAO1 = assay: Murine pneumonia model, single-dose treatment, survival; format: in vivo, DBA/2 mice; settings: 12 mice per group
Description: Kaplan-Meier curves showing percent survival of DBA/2 mice with P. aeruginosa PAO1 infection after treatment with RFX or TOB at 0 h post-infection (FIG. 5A), 6 h post-infection (FIG. 5B), and 12 h post-infection (FIG. 5C). Data shown represent means of 12 mice per group. The Mantel-Cox test was used with significance set at a P value of <0.01 and showing standard error (SE) bars.
Murine Pneumonia Model Treatment. TOB or RFX were used to treat P. aeruginosa respiratory infection in a DBA/2 mouse model established previously. Lung infection was induced by a single exposure to a total of 84 male DBA/2 mice of 8 week old (Charles River Laboratories) to P. aeruginosa PAO1 aerosols, which was prepared as previously reported. Immediately after infection, the mice were separated into seven groups (n=12 per group): 1) control with no treatment, 2) treatment with 300 mg TOB immediately after infection, 3) treatment with 300 mg RFX immediately after infection, 4) treatment with 300 mg TOB 6 h after infection, 5) treatment with 300 mg RFX 6 h after infection, 6) treatment with 300 mg TOB 12 h after infection, or 7) treatment with 300 mg RFX 12 h after infection. Each experimental group was treated with TOB or RFX with a control group treated with PBS following the nebulization protocol as described above. The mice were monitored for survival at 12 hour intervals for 72 hours and then at 24 hour intervals for 6 weeks.
After establishing the dosing of TOB or RFX to efficiently reach the lungs, the efficacy of both drugs against P. aeruginosa lung infections was compared using an established mouse model. DBA/2 (n=84) male mice were first infected with aerosolized P. aeruginosa PAO1 in a whole-body exposure chamber as previously described. The mice were then separated into four groups. One group was left untreated to determine the rate of mortality (control). The remaining three groups were treated with RFX or TOB using a pressure-based nebulizer and whole-body exposure chamber at a concentration of 300 mg at 0 h, 6 h, or 12 h post infection. All control mice died within 5 days (FIGS. 5A-5C), consistent with what was previously reported. […] In the 12 h treatment group, 83% of mice treated with RFX survived, while only 50% of mice treated with TOB survived (FIG. 5C).

P. aeruginosa = assay: Uronic acid carbazole assay of alginate production; format: cell-based, Pseudomonas aeruginosa
Description: Data shown represent means of 5 replicates per group ±standard error (SE). Two-way ANOVA analysis was used with statistical significance set as a P value of <0.01 (****, P<0.0001; **, P<0.001; *, P<0.01).
Uronic Acid Carbazole Assay. Alginate production was measured via carbazole assay. Laboratory and clinical isolate strains were grown in PIB from a single colony isolation. The strains were then plated on 150 mm agar plates containing no antibiotic; RFX at concentrations of 10 μM (MIC50), 6 μM (MIC30), 2 μM (MIC10), and 0.2 μM (MIC1); or TOB at concentrations of 2 μM (MIC50), 1.2 μM (MIC30), 0.4 μM (MIC10), and 0.04 μM (MIC1) and incubated at 37° C. for 48 h. Sterile PBS (30 mL) was added to the plates and the cells plus their mucoid film were collected into 50 mL conical tubes. A 1 mL sample was taken to measure growth via OD at 600 nm. A 700 μL sample was then added to tubes containing 6 mL of a sulfuric acid-borate solution. A 200 μL aliquot of 0.1% carbazole was then added to the tubes and incubated for 30 m at 55° C. The alginate was then measured via OD at 530 nm and plotted against a standard curve made with D-mannuronic acid (Sigma-Aldrich). The reported values represent an average from three independent alginate collections with standard deviation.
To investigate the extent of this inhibition, PAO1, PAO581, and two mucoid P. aeruginosa CF isolates (CF001 and CF010) were grew on PIA plates containing sub-MIC concentrations of either TOB or RFX and measured alginate production with the carbazole assay. […] The MIC normalization was used to compare the effect of the two drugs on inhibition of alginate production, as this allowed the measurement of alginate made by the same number of bacterial cells.

[1] = 300 mg nebulized at 0 h after infection
[2] = 300 mg nebulized at 6 h post infection
[3] = 300 mg nebulized at 12 h post infection
[4] = non-mucoid strain PAO1, sub-MIC concentrations (MIC1-MIC50) on PIA, TOB versus RFX

Compound: CO[C@H]1/C=C/O[C@@]2(C)Oc3c(C)c(O)c4c(O)c(c5c(nc6cc(C)ccn65)c4c3C2=O)NC(=O)/C(C)=C\C=C\[C@H](C)[C@H](O)[C@@H](C)[C@@H](O)[C@@H](C)[C@H](OC(C)=O)[C@@H]1C [RFX, rifaximin]
- FIC RFX (P. aeruginosa strains; strain CF001, M): 0.25
- MIC RFX (P. aeruginosa strains; strain CF001, M): 16
- MIC RFX in Combination (P. aeruginosa strains; strain CF001, M): 4
- MIC RFX (P. aeruginosa strains; strain CF003, NM): 4
- FIC RFX (P. aeruginosa strains; strain CF010, M): 0.25
- MIC RFX (P. aeruginosa strains; strain CF010, M): 8
- MIC RFX in Combination (P. aeruginosa strains; strain CF010, M): 2
- FIC RFX (P. aeruginosa strains; strain PAO1, NM): 0.25
- MIC RFX (P. aeruginosa strains; strain PAO1, NM (non-mucoid)): 16
- MIC RFX in Combination (P. aeruginosa strains; strain PAO1, NM): 4
- FIC RFX (P. aeruginosa strains; strain PAO581, M): 0.25
- MIC RFX (P. aeruginosa strains; strain PAO581, M (mucoid)): 16
- MIC RFX in Combination (P. aeruginosa strains; strain PAO581, M): 4
- FIC RFX (P. aeruginosa strains; strain PAO581 NM revertant): 0.25
- MIC RFX (P. aeruginosa strains; strain PAO581 NM revertant): 16
- MIC RFX in Combination (P. aeruginosa strains; strain PAO581 NM revertant): 4
- survival (P. aeruginosa PAO1; [1]): 100%
- survival (P. aeruginosa PAO1; [2]): 92%
- survival (P. aeruginosa PAO1; [3]): 83%
- alginate production (P. aeruginosa; mucoid CF isolates CF001 and CF010, compared to TOB): significant decrease in alginate production
- alginate production (P. aeruginosa; mucoid strain PAO581, all concentrations tested, compared to TOB): significantly decreased alginate production
- alginate production (P. aeruginosa; [4]): no significant difference in alginate production

Compound: NC[C@H]1O[C@H](O[C@H]2[C@H](O)[C@@H](O[C@H]3O[C@H](CO)[C@@H](O)[C@H](N)[C@H]3O)[C@H](N)C[C@@H]2N)[C@H](N)C[C@@H]1O [TOB, tobramycin]
- FIC TOB (P. aeruginosa strains; strain CF001, M): 0.25
- MIC TOB (P. aeruginosa strains; strain CF001, M): 2
- MIC TOB in Combination (P. aeruginosa strains; strain CF001, M): 0.5
- MIC TOB (P. aeruginosa strains; strain CF003, NM): 2
- MIC TOB in Combination (P. aeruginosa strains; strain CF003, NM): 0.25
- FIC TOB (P. aeruginosa strains; strain CF010, M): 0.25
- MIC TOB (P. aeruginosa strains; strain CF010, M): 2
- MIC TOB in Combination (P. aeruginosa strains; strain CF010, M): 0.5
- FIC TOB (P. aeruginosa strains; strain PAO1, NM): 0.125
- MIC TOB (P. aeruginosa strains; strain PAO1, NM): 2
- MIC TOB in Combination (P. aeruginosa strains; strain PAO1, NM): 0.25
- FIC TOB (P. aeruginosa strains; strain PAO581, M): 0.25
- MIC TOB (P. aeruginosa strains; strain PAO581, M): 2
- MIC TOB in Combination (P. aeruginosa strains; strain PAO581, M): 0.5
- FIC TOB (P. aeruginosa strains; strain PAO581 NM revertant): 0.25
- MIC TOB (P. aeruginosa strains; strain PAO581 NM revertant): 2
- MIC TOB in Combination (P. aeruginosa strains; strain PAO581 NM revertant): 0.5
- survival (P. aeruginosa PAO1; [1]): 92%
- survival (P. aeruginosa PAO1; [2]): 58%
- survival (P. aeruginosa PAO1; [3]): 50%
- alginate production (P. aeruginosa; [4]): no significant difference in alginate production
